Results as given in PubChem BioAssay (NCI).
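A five-concentration, 48-hour dose response in 96-well plates underlies each endpoint, interpolated linearly between surrounding concentrations. Abbreviation: GI50, concentration required for 50% inhibition of growth. TGI denotes the concentration required for complete inhibition of growth.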

Experiments:
Assay in all cases: NCI anticancer screen, dose series, 48 h
NCI-H522 lung = tested on: NCI-H522 lung
M14 melanoma = tested on: M14 melanoma
SF-539 CNS = tested on: SF-539 CNS
786-0 renal = tested on: 786-0 renal
SF-268 CNS = tested on: SF-268 CNS
NCI/ADR-RES ovarian = tested on: NCI/ADR-RES ovarian
BT-549 breast = tested on: BT-549 breast
OVCAR-4 ovarian = tested on: OVCAR-4 ovarian
OVCAR-3 ovarian = tested on: OVCAR-3 ovarian
SNB-19 CNS = tested on: SNB-19 CNS
U251 CNS = tested on: U251 CNS
UACC-62 melanoma = tested on: UACC-62 melanoma
HL-60(TB) leukemia = tested on: HL-60(TB) leukemia
HCT-15 colon = tested on: HCT-15 colon
CCRF-CEM leukemia = tested on: CCRF-CEM leukemia
PC-3 prostate = tested on: PC-3 prostate
HS 578T breast = tested on: HS 578T breast
LOX IMVI melanoma = tested on: LOX IMVI melanoma
SNB-75 CNS = tested on: SNB-75 CNS
OVCAR-5 ovarian = tested on: OVCAR-5 ovarian
RPMI-8226 leukemia = tested on: RPMI-8226 leukemia
NCI-H226 lung = tested on: NCI-H226 lung
ACHN renal = tested on: ACHN renal
SF-295 CNS = tested on: SF-295 CNS
A498 renal = tested on: A498 renal
MDA-MB-435 = tested on: MDA-MB-435
IGROV1 ovarian = tested on: IGROV1 ovarian
UO-31 renal = tested on: UO-31 renal
HCC-2998 colon = tested on: HCC-2998 colon
K-562 leukemia = tested on: K-562 leukemia
COLO 205 colon = tested on: COLO 205 colon
T-47D breast = tested on: T-47D breast
TK-10 renal = tested on: TK-10 renal
SN12C renal = tested on: SN12C renal
KM12 colon = tested on: KM12 colon
SK-MEL-5 melanoma = tested on: SK-MEL-5 melanoma
SK-OV-3 ovarian = tested on: SK-OV-3 ovarian
SW-620 colon = tested on: SW-620 colon
CAKI-1 renal = tested on: CAKI-1 renal
RXF 393 renal = tested on: RXF 393 renal
HOP-92 NSCLC = tested on: HOP-92 NSCLC
SR leukemia = tested on: SR leukemia
OVCAR-8 ovarian = tested on: OVCAR-8 ovarian
HOP-62 NSCLC = tested on: HOP-62 NSCLC
DU-145 prostate = tested on: DU-145 prostate
A549 NSCLC = tested on: A549 NSCLC
MOLT-4 leukemia = tested on: MOLT-4 leukemia
MDA-MB-231 breast = tested on: MDA-MB-231 breast
HT29 colon = tested on: HT29 colon
HCT-116 colon = tested on: HCT-116 colon
SK-MEL-28 melanoma = tested on: SK-MEL-28 melanoma
UACC-257 melanoma = tested on: UACC-257 melanoma
MCF7 breast = tested on: MCF7 breast
NCI-H460 lung = tested on: NCI-H460 lung
SK-MEL-2 melanoma = tested on: SK-MEL-2 melanoma
NCI-H23 lung = tested on: NCI-H23 lung
MALME-3M melanoma = tested on: MALME-3M melanoma
EKVX NSCLC = tested on: EKVX NSCLC

**Q.** What does the source list for `Cc1ccc2sc3c(c2c1)OC(N)=C(C#N)C3c1cccc(F)c1` (stereo unspecified)?
**A.** GI50 (NCI-H522 lung): 0.0228 µM; TGI (NCI-H522 lung): 0.0946 µM; GI50 (M14 melanoma): 0.137 µM; TGI (M14 melanoma): 1.9 µM; GI50 (SF-539 CNS): 0.155 µM; TGI (SF-539 CNS): 0.547 µM; GI50 (786-0 renal): 0.458 µM; TGI (786-0 renal): 6.49 µM; GI50 (SF-268 CNS): 0.822 µM; TGI (SF-268 CNS): 24.6 µM; GI50 (NCI/ADR-RES ovarian): 0.0574 µM; TGI (NCI/ADR-RES ovarian): 1.76 µM; GI50 (BT-549 breast): 0.137 µM; TGI (BT-549 breast): 1.17 µM; GI50 (OVCAR-4 ovarian): 1.34 µM; TGI (OVCAR-4 ovarian): 7.48 µM; GI50 (OVCAR-3 ovarian): 0.134 µM; TGI (OVCAR-3 ovarian): 4.1 µM; GI50 (SNB-19 CNS): 0.339 µM; TGI (SNB-19 CNS): 13 µM; GI50 (U251 CNS): 0.151 µM; TGI (U251 CNS): 1.95 µM; GI50 (UACC-62 melanoma): 0.0535 µM; TGI (UACC-62 melanoma): 12.5 µM; GI50 (HL-60(TB) leukemia): 0.235 µM; TGI (HL-60(TB) leukemia): 0.671 µM; GI50 (HCT-15 colon): 0.0755 µM; TGI (HCT-15 colon): 6.4 µM; GI50 (CCRF-CEM leukemia): 0.312 µM; TGI (CCRF-CEM leukemia): 24.7 µM; GI50 (PC-3 prostate): 0.305 µM; TGI (PC-3 prostate): 14.8 µM; GI50 (HS 578T breast): 0.194 µM; TGI (HS 578T breast): 8.97 µM; GI50 (LOX IMVI melanoma): 0.16 µM; TGI (LOX IMVI melanoma): 2.45 µM; GI50 (SNB-75 CNS): 0.158 µM; TGI (SNB-75 CNS): 1.36 µM; GI50 (OVCAR-5 ovarian): 0.37 µM; TGI (OVCAR-5 ovarian): 7.58 µM; GI50 (RPMI-8226 leukemia): 0.324 µM; TGI (RPMI-8226 leukemia): 9.77 µM; GI50 (NCI-H226 lung): 0.282 µM; TGI (NCI-H226 lung): 2.81 µM; GI50 (ACHN renal): 0.45 µM; TGI (ACHN renal): 10.7 µM; GI50 (SF-295 CNS): 0.0799 µM; TGI (SF-295 CNS): 0.77 µM; GI50 (A498 renal): 3.35 µM; TGI (A498 renal): 17.2 µM; GI50 (MDA-MB-435): 0.0241 µM; TGI (MDA-MB-435): 0.062 µM; GI50 (IGROV1 ovarian): 0.318 µM; TGI (IGROV1 ovarian): 12.7 µM; GI50 (UO-31 renal): 0.375 µM; TGI (UO-31 renal): 11.1 µM; GI50 (HCC-2998 colon): 0.264 µM; TGI (HCC-2998 colon): 1.41 µM; GI50 (K-562 leukemia): 0.0426 µM; TGI (K-562 leukemia): > 40.8 µM; GI50 (COLO 205 colon): 0.276 µM; TGI (COLO 205 colon): 0.779 µM; GI50 (T-47D breast): 0.0351 µM; TGI (T-47D breast): 26.9 µM; GI50 (TK-10 renal): 1.58 µM; TGI (TK-10 renal): 13.5 µM; GI50 (SN12C renal): 0.411 µM; TGI (SN12C renal): 6.17 µM; GI50 (KM12 colon): 0.309 µM; TGI (KM12 colon): 16.9 µM; GI50 (SK-MEL-5 melanoma): 0.391 µM; TGI (SK-MEL-5 melanoma): 2.35 µM; GI50 (SK-OV-3 ovarian): 0.324 µM; TGI (SK-OV-3 ovarian): 10.7 µM; GI50 (SW-620 colon): 0.111 µM; TGI (SW-620 colon): 13.4 µM; GI50 (CAKI-1 renal): 0.183 µM; TGI (CAKI-1 renal): 11.5 µM; GI50 (RXF 393 renal): 0.0365 µM; TGI (RXF 393 renal): 0.189 µM; GI50 (HOP-92 NSCLC): 4.32 µM; TGI (HOP-92 NSCLC): 20.5 µM; GI50 (SR leukemia): 0.09 µM; TGI (SR leukemia): 30.8 µM; GI50 (OVCAR-8 ovarian): 0.257 µM; TGI (OVCAR-8 ovarian): 1.25 µM; GI50 (HOP-62 NSCLC): 0.265 µM; TGI (HOP-62 NSCLC): 3.97 µM; GI50 (DU-145 prostate): 0.541 µM; TGI (DU-145 prostate): > 33.2 µM; GI50 (A549 NSCLC): 0.217 µM; TGI (A549 NSCLC): 11.6 µM; GI50 (MOLT-4 leukemia): 0.414 µM; TGI (MOLT-4 leukemia): 33.6 µM; GI50 (MDA-MB-231 breast): 0.457 µM; TGI (MDA-MB-231 breast): 3.17 µM; GI50 (HT29 colon): 0.25 µM; TGI (HT29 colon): 0.878 µM; GI50 (HCT-116 colon): 0.102 µM; TGI (HCT-116 colon): 1.95 µM; GI50 (SK-MEL-28 melanoma): 0.825 µM; TGI (SK-MEL-28 melanoma): 20.1 µM; GI50 (UACC-257 melanoma): 0.162 µM; TGI (UACC-257 melanoma): 23.3 µM; GI50 (MCF7 breast): 0.03 µM; TGI (MCF7 breast): 11.7 µM; GI50 (NCI-H460 lung): 0.0521 µM; TGI (NCI-H460 lung): 1.37 µM; GI50 (SK-MEL-2 melanoma): 0.308 µM; TGI (SK-MEL-2 melanoma): 18.7 µM; GI50 (NCI-H23 lung): 0.205 µM; TGI (NCI-H23 lung): 2.56 µM; GI50 (MALME-3M melanoma): 0.0992 µM; TGI (MALME-3M melanoma): 11.2 µM; GI50 (EKVX NSCLC): 0.573 µM; TGI (EKVX NSCLC): 18.9 µM
